Test results as given in ChEMBL document CHEMBL1126355, “The basis for slowly reversible inhibition of dehydroquinate synthase: a case of mistaken identity?” (Bioorg Med Chem Lett, 1992).

Tests used:
[1] = molecular target: T1, 3-dehydroquinate synthase (Escherichia coli K-12) (UniProt P07639); assay: Rate constant against 3-dehydroquinate synthase
T1 sequence (whole entry): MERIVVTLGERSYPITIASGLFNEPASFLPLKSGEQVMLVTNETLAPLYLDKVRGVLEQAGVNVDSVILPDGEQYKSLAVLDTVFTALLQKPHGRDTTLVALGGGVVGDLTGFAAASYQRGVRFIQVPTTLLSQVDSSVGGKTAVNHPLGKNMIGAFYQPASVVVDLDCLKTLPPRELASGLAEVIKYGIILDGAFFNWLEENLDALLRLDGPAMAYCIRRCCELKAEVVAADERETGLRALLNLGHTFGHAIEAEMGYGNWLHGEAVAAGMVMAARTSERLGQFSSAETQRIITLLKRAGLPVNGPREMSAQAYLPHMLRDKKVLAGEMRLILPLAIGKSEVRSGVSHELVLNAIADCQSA

[2] = molecular target: T1, 3-dehydroquinate synthase (Escherichia coli K-12); assay: Type of inhibition of 3-dehydroquinate synthase was determined; R - Slowly reversible
[3] = molecular target: T2, 3-dehydroquinate synthase (Escherichia coli K-12, UniProt P07639); assay: Inhibition constant against 3-dehydroquinate synthase
T2 sequence (P07639 whole entry): T1 sequence (whole entry)

[4] = molecular target: T1, 3-dehydroquinate synthase (Escherichia coli K-12); assay: […] rate constant against 3-dehydroquinate synthase

k on [1] [M⁻¹ s⁻¹] | inhibition [2] | Ki [3] [nM] | k off [4] [s⁻¹] | Structure (SMILES)
140000 | R | 5.4 | 0.00075 | O=C(O)C1(O)CC(O)C(O)C(CP(=O)(O)O)C1 (centres undefined)
1000 | R | 540 | 0.00054 | O=C(O)C1(O)CC(O)CC(CP(=O)(O)O)C1 (centres undefined)

Structure (SMILES) | k on [1] [M⁻¹ s⁻¹] | inhibition [2] | Ki [3] [nM] | k off [4] [s⁻¹]
O=C(O)C1(O)CCC(O)C(CP(=O)(O)O)C1 (centres undefined) | – | R | – | –
